Values of other authors, collected in patent US10898449B2, “Transdermal therapeutic system containing asenapine” (LTS LOHMANN Therapie-Systeme AG, priority 2016, dated 2021).

Columns and labels:
[1] = sublingual administration, therapeutic doses
patients = conditions: human, in vivo

terminal disposition half-life [1]: around 1 day
Somnolence and anxiety (very common), share of the patients (patients): ≥ 10%
Compound: CN1C[C@H]2c3ccccc3Oc3ccc(Cl)cc3[C@@H]2C1 (relative stereo) [asenapine, (3aRS,12bRS)-rel-5-chloro-2,3,3a,12b-tetrahydro-2-methyl-1H-dibenz[2,3:6,7]oxepino[4,5-c]pyrrole]
